Measurements from ChEMBL document CHEMBL2396621, “Design, synthesis and biological evaluation of 2-mercapto-3-phenethylquinazoline bearing anilide fragments as potential antitumor agents: molecular docking study” (2013).

How the values were obtained:
Format in all cases: functional
[1] = test system: SF-268; assay: Cytotoxicity against human SF268 cells assessed as growth inhibition at 10 uM after 48 hrs by coulter counter analysis; conditions: SF-268, 48 h, read-out: GI
[2] = test system: TK-10; assay: Cytotoxicity against human TK10 cells assessed as growth inhibition at 10 uM after 48 hrs by coulter counter analysis; conditions: TK-10, 48 h, read-out: GI
[3] = test system: NCI-H522; assay: Cytotoxicity against human NCI-H522 cells assessed as growth inhibition at 10 uM after 48 hrs by coulter counter analysis; conditions: NCI-H522, 48 h, read-out: GI
[4] = test system: SK-MEL-28; assay: Cytotoxicity against human SK-MEL-28 cells assessed as growth inhibition at 10 uM after 48 hrs by coulter counter analysis; conditions: SK-MEL-28, 48 h, read-out: GI
[5] = test system: ACHN; assay: Cytotoxicity against human ACHN cells assessed as growth inhibition at 10 uM after 48 hrs by coulter counter analysis; conditions: read-out: GI
[6] = test system: SK-OV-3; assay: Cytotoxicity against human SKOV3 cells assessed as growth inhibition at 10 uM after 48 hrs by coulter counter analysis; conditions: SK-OV-3, 48 h, read-out: GI
[7] = test system: PC-3; assay: Cytotoxicity against human PC3 cells assessed as growth inhibition at 10 uM after 48 hrs by coulter counter analysis; conditions: PC-3, 48 h, read-out: GI
[8] = test system: HCT-116; assay: Cytotoxicity against human HCT116 cells assessed as growth inhibition at 10 uM after 48 hrs by coulter counter analysis; conditions: HCT-116, 48 h, read-out: GI
[9] = test system: U-251; assay: Cytotoxicity against human U251 cells assessed as growth inhibition at 10 uM after 48 hrs by coulter counter analysis; conditions: U-251, 48 h, read-out: GI
[10] = test system: Hs-578T; assay: Cytotoxicity against human Hs578T cells assessed as growth inhibition at 10 uM after 48 hrs by coulter counter analysis; conditions: read-out: GI
[11] = Cytotoxicity against human EKVX cells assessed as growth inhibition at 10 uM after 48 hrs by coulter counter analysis; conditions: read-out: GI
[12] = test system: HT-29; assay: Cytotoxicity against human HT-29 cells assessed as growth inhibition at 10 uM after 48 hrs by coulter counter analysis; conditions: HT-29, 48 h, read-out: GI
[13] = test system: UACC-62; assay: Cytotoxicity against human UACC62 cells assessed as growth inhibition at 10 uM after 48 hrs by coulter counter analysis; conditions: UACC-62, 48 h, read-out: GI
[14] = test system: SK-MEL-5; assay: Cytotoxicity against human SK-MEL-5 cells assessed as growth inhibition at 10 uM after 48 hrs by coulter counter analysis; conditions: SK-MEL-5, 48 h, read-out: GI
[15] = test system: RXF 393; assay: Cytotoxicity against human RXF393 cells assessed as growth inhibition at 10 uM after 48 hrs by coulter counter analysis; conditions: RXF 393, 48 h, read-out: GI
[16] = test system: MCF7; assay: Cytotoxicity against human MCF7 cells assessed as growth inhibition at 10 uM after 48 hrs by coulter counter analysis; conditions: MCF7, 48 h, read-out: GI
[17] = test system: UACC-257; assay: Cytotoxicity against human UACC257 cells assessed as growth inhibition at 10 uM after 48 hrs by coulter counter analysis; conditions: UACC-257, 48 h, read-out: GI
[18] = test system: KM12; assay: Cytotoxicity against human KM12 cells assessed as growth inhibition at 10 uM after 48 hrs by coulter counter analysis; conditions: KM12, 48 h, read-out: GI
[19] = test system: SNB-75; assay: Cytotoxicity against human SNB75 cells assessed as growth inhibition at 10 uM after 48 hrs by coulter counter analysis; conditions: SNB-75, 48 h, read-out: GI
[20] = test system: IGROV-1; assay: Cytotoxicity against human IGROV1 cells assessed as growth inhibition at 10 uM after 48 hrs by coulter counter analysis; conditions: IGROV-1, 48 h, read-out: GI
[21] = test system: OVCAR-3; assay: Cytotoxicity against human OVCAR3 cells assessed as growth inhibition at 10 uM after 48 hrs by coulter counter analysis; conditions: OVCAR-3, 48 h, read-out: GI
[22] = test system: SF-295; assay: Cytotoxicity against human SF295 cells assessed as growth inhibition at 10 uM after 48 hrs by coulter counter analysis; conditions: SF-295, 48 h, read-out: GI
[23] = test system: NCI-H460; assay: Cytotoxicity against human NCI-H460 cells assessed as growth inhibition at 10 uM after 48 hrs by coulter counter analysis; conditions: NCI-H460, 48 h, read-out: GI
[24] = test system: 786-0; assay: Cytotoxicity against human 786-0 cells assessed as growth inhibition at 10 uM after 48 hrs by coulter counter analysis; conditions: 786-0, 48 h, read-out: GI
[25] = test system: OVCAR-8; assay: Cytotoxicity against human OVCAR8 cells assessed as growth inhibition at 10 uM after 48 hrs by coulter counter analysis; conditions: OVCAR-8, 48 h, read-out: GI
[26] = test system: NCI-H322M; assay: Cytotoxicity against human NCI-H322M cells assessed as growth inhibition at 10 uM after 48 hrs by coulter counter analysis; conditions: read-out: GI
[27] = test system: T47D; assay: Cytotoxicity against human T47D cells assessed as growth inhibition at 10 uM after 48 hrs by coulter counter analysis; conditions: read-out: GI
[28] = test system: LOX IMVI; assay: Cytotoxicity against human LOXIMVI cells assessed as growth inhibition at 10 uM after 48 hrs by coulter counter analysis; conditions: read-out: GI
[29] = test system: UO-31; assay: Cytotoxicity against human UO31 cells assessed as growth inhibition at 10 uM after 48 hrs by coulter counter analysis; conditions: UO-31, 48 h, read-out: GI
[30] = test system: NCI-H226; assay: Cytotoxicity against human NCI-H226 cells assessed as growth inhibition at 10 uM after 48 hrs by coulter counter analysis; conditions: NCI-H226, 48 h, read-out: GI
[31] = test system: COLO 205; assay: Cytotoxicity against human COLO205 cells assessed as growth inhibition at 10 uM after 48 hrs by coulter counter analysis; conditions: COLO 205, 48 h, read-out: GI
[32] = test system: OVCAR-4; assay: Cytotoxicity against human OVCAR4 cells assessed as growth inhibition at 10 uM after 48 hrs by coulter counter analysis; conditions: OVCAR-4, 48 h, read-out: GI
[33] = test system: DU-145; assay: Cytotoxicity against human DU145 cells assessed as growth inhibition at 10 uM after 48 hrs by coulter counter analysis; conditions: DU-145, 48 h, read-out: GI
[34] = test system: NCI-H23; assay: Cytotoxicity against human NCI-H23 cells assessed as growth inhibition at 10 uM after 48 hrs by coulter counter analysis; conditions: NCI-H23, 48 h, read-out: GI
[35] = test system: SNB-19; assay: Cytotoxicity against human SNB19 cells assessed as growth inhibition at 10 uM after 48 hrs by coulter counter analysis; conditions: SNB-19, 48 h, read-out: GI
[36] = test system: SF-539; assay: Cytotoxicity against human SF539 cells assessed as growth inhibition at 10 uM after 48 hrs by coulter counter analysis; conditions: SF-539, 48 h, read-out: GI
[37] = test system: BT-549; assay: Cytotoxicity against human BT549 cells assessed as growth inhibition at 10 uM after 48 hrs by coulter counter analysis; conditions: BT-549, 48 h, read-out: GI

Row | SMILES | inhibition of growth at 10 µM [1] [%] | inhibition of growth at 10 µM [2] [%] | inhibition of growth at 10 µM [3] [%] | inhibition of growth at 10 µM [4] [%] | inhibition of growth at 10 µM [5] [%] | inhibition of growth at 10 µM [6] [%] | inhibition of growth at 10 µM [7] [%] | inhibition of growth at 10 µM [8] [%] | inhibition of growth at 10 µM [10] [%] | inhibition of growth at 10 µM [12] [%] | inhibition of growth at 10 µM [13] [%] | inhibition of growth at 10 µM [14] [%] | inhibition of growth at 10 µM [15] [%] | inhibition of growth at 10 µM [16] [%] | inhibition of growth at 10 µM [17] [%] | inhibition of growth at 10 µM [18] [%] | inhibition of growth at 10 µM [19] [%] | inhibition of growth at 10 µM [20] [%] | inhibition of growth at 10 µM [21] [%] | inhibition of growth at 10 µM [22] [%] | further results
1 | O=C(CSc1nc2ccccc2c(=O)n1CCc1ccccc1)Nc1ccc(Cl)cc1 | 40 | 19 | 45 | 10 | 22 | 43 | 30 | 23 | 45 | < 10 | 34 | 22 | 22 | 30 | 18 | 14 | 63 | 36 | 32 | 32 | inhibition of growth at 10 µM [9]: 25%; inhibition of growth at 10 µM [11]: 29%; inhibition of growth at 10 µM [23]: 32%; inhibition of growth at 10 µM [24]: 13%; inhibition of growth at 10 µM [25]: 39%; inhibition of growth at 10 µM [26]: 13%; inhibition of growth at 10 µM [27]: 56%; inhibition of growth at 10 µM [28]: 23%; inhibition of growth at 10 µM [29]: 28%; inhibition of growth at 10 µM [30]: 24%; inhibition of growth at 10 µM [31]: 15%; inhibition of growth at 10 µM [32]: 14%; inhibition of growth at 10 µM [33]: 12%; inhibition of growth at 10 µM [34]: 21%; inhibition of growth at 10 µM [35]: 30%; inhibition of growth at 10 µM [36]: 41%
2 | O=C(CSc1nc2ccccc2c(=O)n1CCc1ccccc1)Nc1ccccc1C(=O)O | 33 | 19 | 85 | 17 | 34 | 53 | < 10 | 45 | 45 | 11 | 21 | 35 | 25 | 21 | 35 | 10 | 74 | 42 | 29 | 18 | inhibition of growth at 10 µM [11]: 25%; inhibition of growth at 10 µM [23]: 41%; inhibition of growth at 10 µM [24]: 16%; inhibition of growth at 10 µM [25]: 61%; inhibition of growth at 10 µM [26]: 19%; inhibition of growth at 10 µM [27]: 27%; inhibition of growth at 10 µM [28]: 38%; inhibition of growth at 10 µM [29]: < 10%; inhibition of growth at 10 µM [30]: 26%; inhibition of growth at 10 µM [31]: 35%; inhibition of growth at 10 µM [32]: 23%; inhibition of growth at 10 µM [33]: 30%; inhibition of growth at 10 µM [34]: 26%; inhibition of growth at 10 µM [37]: 10%; inhibition of growth at 10 µM [35]: 40%; inhibition of growth at 10 µM [36]: 44%
3 | O=C(CSc1nc2ccccc2c(=O)n1CCc1ccccc1)Oc1ccccc1 | 16 | < 10 | 37 | < 10 | 10 | 28 | 14 | 21 | < 10 | < 10 | 19 | < 10 | < 10 | 15 | 11 | < 10 | 28 | 10 | < 10 | 20 | inhibition of growth at 10 µM [23]: 14%; inhibition of growth at 10 µM [24]: 13%; inhibition of growth at 10 µM [25]: 23%; inhibition of growth at 10 µM [26]: 25%; inhibition of growth at 10 µM [27]: 14%; inhibition of growth at 10 µM [28]: 16%; inhibition of growth at 10 µM [29]: 16%; inhibition of growth at 10 µM [31]: < 10%; inhibition of growth at 10 µM [32]: 59%; inhibition of growth at 10 µM [34]: 14%; inhibition of growth at 10 µM [37]: < 10%; inhibition of growth at 10 µM [35]: < 10%; inhibition of growth at 10 µM [36]: < 10%
4 | O=C(CSc1nc2ccccc2c(=O)n1CCc1ccccc1)Oc1ccc(Cl)cc1 | < 10 | < 10 | 37 | < 10 | < 10 | 28 | 25 | < 10 | 41 | < 10 | 11 | < 10 | < 10 | 34 | < 10 | < 10 | 28 | 15 | < 10 | < 10 | inhibition of growth at 10 µM [9]: < 10%; inhibition of growth at 10 µM [11]: 28%; inhibition of growth at 10 µM [23]: < 10%; inhibition of growth at 10 µM [24]: < 10%; inhibition of growth at 10 µM [25]: < 10%; inhibition of growth at 10 µM [26]: < 10%; inhibition of growth at 10 µM [27]: 14%; inhibition of growth at 10 µM [28]: 14%; inhibition of growth at 10 µM [29]: < 10%; inhibition of growth at 10 µM [30]: 13%; inhibition of growth at 10 µM [31]: < 10%; inhibition of growth at 10 µM [32]: 59%; inhibition of growth at 10 µM [33]: < 10%; inhibition of growth at 10 µM [34]: 25%; inhibition of growth at 10 µM [37]: 15%; inhibition of growth at 10 µM [35]: < 10%; inhibition of growth at 10 µM [36]: < 10%
